Measurements taken from publication PMC9898036, “VIP152 is a selective CDK9 inhibitor with pre-clinical in vitro and in vivo efficacy in chronic lymphocytic leukemia” (Leukemia, 2022).

What was measured:
Assay in all cases: DiscoverX KINOMEscan kinase profiling (468 assays)
Format in all cases: binding
human kinome [1] = target: human kinome (Homo sapiens, UniProt Q14012); conditions: CAMK1; 100 nM; read-out: Percent Control
Summary of the method: (§1)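 VIP152 was run in DMSO, alongside a DMSO control. Readout was qPCR of DNA-tagged kinase still bound to bead-immobilized biotinylated kinase ligands after compound competition.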

human kinome [2] = target: human kinome (Homo sapiens, UniProt P42684); conditions: ABL2; 100 nM; read-out: Percent Control
Summary of the method: as §1

human kinome [3] = target: human kinome (Homo sapiens, UniProt P07947); conditions: kinase YES (Entrez YES1); compound concentration 1000 nM; read-out: Percent Control
Summary of the method: as §1

human kinome [4] = target: human kinome (Homo sapiens, UniProt Q13237); conditions: read-out: Percent Control
Summary of the method: as §1

human kinome [5] = target: human kinome (Homo sapiens, UniProt Q9UL54); conditions: kinase TAOK2 (Entrez TAOK2); compound concentration 1000 nM; read-out: Percent Control
Summary of the method: as §1

human kinome [6] = target: human kinome (Homo sapiens, UniProt P49841); conditions: GSK3B; 100 nM; read-out: Percent Control
Summary of the method: as §1

human kinome [7] = target: human kinome (Homo sapiens, UniProt Q8NG66); conditions: read-out: Percent Control
Summary of the method: as §1

human kinome [8] = target: human kinome (Homo sapiens, UniProt P35626); conditions: GRK3 (Entrez ADRBK2); 100 nM; read-out: Percent Control
Summary of the method: as §1

human kinome [9] = target: human kinome (Homo sapiens, UniProt Q12851); conditions: MAP4K2; 100 nM; read-out: Percent Control
Summary of the method: as §1

human kinome [10] = target: human kinome (Homo sapiens, UniProt P37023); conditions: ACVRL1; 100 nM; read-out: Percent Control
Summary of the method: as §1

human kinome [11] = target: human kinome (Homo sapiens, UniProt Q9HBH9); conditions: MKNK2; 100 nM; read-out: Percent Control
Summary of the method: as §1

human kinome [12] = target: human kinome (Homo sapiens, UniProt Q13131); conditions: AMPK-alpha1 (Entrez PRKAA1); 100 nM; read-out: Percent Control
Summary of the method: as §1

human kinome [13] = target: human kinome (Homo sapiens, UniProt Q9BQI3); conditions: EIF2AK1; 100 nM; read-out: Percent Control
Summary of the method: as §1

human kinome [14] = target: human kinome (Homo sapiens, UniProt Q13464); conditions: kinase ROCK1 (Entrez ROCK1); compound concentration 1000 nM; read-out: Percent Control
Summary of the method: as §1

human kinome [15] = target: human kinome (Homo sapiens, UniProt Q9H2G2); conditions: kinase SLK (Entrez SLK); compound concentration 1000 nM; read-out: Percent Control
Summary of the method: as §1

human kinome [16] = target: human kinome (Homo sapiens, UniProt Q86UX6); conditions: kinase YANK3 (Entrez STK32C); compound concentration 1000 nM; read-out: Percent Control
Summary of the method: as §1

human kinome [17] = target: human kinome (Homo sapiens, UniProt O95747); conditions: read-out: Percent Control
Summary of the method: as §1

human kinome [18] = target: human kinome (Homo sapiens, UniProt P54764); conditions: EPHA4; 100 nM; read-out: Percent Control
Summary of the method: as §1

human kinome [19] = target: human kinome (Homo sapiens, UniProt P37173); conditions: kinase TGFBR2 (Entrez TGFBR2); compound concentration 1000 nM; read-out: Percent Control
Summary of the method: as §1

human kinome [20] = target: human kinome (Homo sapiens, UniProt P06213); conditions: INSR; 100 nM; read-out: Percent Control
Summary of the method: as §1

human kinome [21] = target: human kinome (Homo sapiens, UniProt P04049); conditions: read-out: Percent Control
Summary of the method: as §1

human kinome [22] = target: human kinome (Homo sapiens, UniProt Q9BRS2); conditions: kinase RIOK1 (Entrez RIOK1); compound concentration 1000 nM; read-out: Percent Control
Summary of the method: as §1

human kinome [23] = target: human kinome (Homo sapiens, UniProt Q9NY57); conditions: kinase YANK2 (Entrez STK32B); compound concentration 1000 nM; read-out: Percent Control
Summary of the method: as §1

human kinome [24] = target: human kinome (Homo sapiens, UniProt Q9Y2H9); conditions: MAST1; 100 nM; read-out: Percent Control
Summary of the method: as §1

human kinome [25] = target: human kinome (Homo sapiens, UniProt P07949, M918T); conditions: kinase RET(M918T) (Entrez RET); compound concentration 1000 nM; read-out: Percent Control
Summary of the method: as §1

human kinome [26] = target: human kinome (Homo sapiens, UniProt Q96BR1); conditions: kinase SGK3 (Entrez SGK3); compound concentration 1000 nM; read-out: Percent Control
Summary of the method: as §1

human kinome [27] = target: human kinome (Homo sapiens, UniProt Q13470); conditions: kinase TNK1 (Entrez TNK1); compound concentration 1000 nM; read-out: Percent Control
Summary of the method: as §1

human kinome [28] = target: human kinome (Homo sapiens, UniProt P07949, V804M); conditions: kinase RET(V804M) (Entrez RET); compound concentration 1000 nM; read-out: Percent Control
Summary of the method: as §1

human kinome [29] = target: human kinome (Homo sapiens, UniProt P41240); conditions: CSK; 100 nM; read-out: Percent Control
Summary of the method: as §1

human kinome [30] = target: human kinome (Homo sapiens, UniProt Q9UF33); conditions: EPHA6; 100 nM; read-out: Percent Control
Summary of the method: as §1

human kinome (Homo sapiens, UniProt P04049), sequence (P04049 whole entry): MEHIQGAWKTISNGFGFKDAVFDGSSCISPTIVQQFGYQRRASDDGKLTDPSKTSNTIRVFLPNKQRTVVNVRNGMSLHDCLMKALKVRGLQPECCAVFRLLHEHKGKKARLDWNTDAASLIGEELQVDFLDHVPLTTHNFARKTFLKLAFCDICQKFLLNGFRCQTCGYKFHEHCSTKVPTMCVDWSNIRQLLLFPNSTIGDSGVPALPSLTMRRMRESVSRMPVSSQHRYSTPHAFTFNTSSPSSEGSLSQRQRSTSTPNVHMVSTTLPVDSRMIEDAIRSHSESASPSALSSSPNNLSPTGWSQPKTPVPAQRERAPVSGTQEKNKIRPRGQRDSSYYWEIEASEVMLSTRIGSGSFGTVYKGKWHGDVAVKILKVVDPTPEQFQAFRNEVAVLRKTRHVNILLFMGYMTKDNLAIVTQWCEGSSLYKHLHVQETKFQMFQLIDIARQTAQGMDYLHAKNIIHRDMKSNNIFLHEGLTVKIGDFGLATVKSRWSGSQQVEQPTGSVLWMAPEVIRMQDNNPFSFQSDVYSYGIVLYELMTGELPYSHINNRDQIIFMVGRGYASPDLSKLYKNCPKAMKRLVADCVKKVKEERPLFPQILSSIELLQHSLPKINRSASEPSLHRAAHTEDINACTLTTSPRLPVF
human kinome (Homo sapiens, UniProt O95747), sequence (O95747 whole entry): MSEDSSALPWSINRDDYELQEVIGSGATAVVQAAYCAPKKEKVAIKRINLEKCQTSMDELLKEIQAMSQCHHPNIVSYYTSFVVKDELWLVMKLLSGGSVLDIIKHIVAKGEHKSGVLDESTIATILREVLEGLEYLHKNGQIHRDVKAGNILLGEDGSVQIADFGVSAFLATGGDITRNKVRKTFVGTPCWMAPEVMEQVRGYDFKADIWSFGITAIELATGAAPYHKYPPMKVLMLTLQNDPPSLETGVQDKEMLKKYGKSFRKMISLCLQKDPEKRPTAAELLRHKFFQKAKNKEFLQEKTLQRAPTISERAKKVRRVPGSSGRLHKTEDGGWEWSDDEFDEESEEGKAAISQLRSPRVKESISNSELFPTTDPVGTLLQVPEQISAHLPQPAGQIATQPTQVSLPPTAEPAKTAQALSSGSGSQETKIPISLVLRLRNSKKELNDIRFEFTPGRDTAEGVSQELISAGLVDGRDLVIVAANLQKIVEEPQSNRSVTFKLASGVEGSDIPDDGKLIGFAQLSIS
human kinome (Homo sapiens, UniProt Q8NG66), sequence (Q8NG66 whole entry): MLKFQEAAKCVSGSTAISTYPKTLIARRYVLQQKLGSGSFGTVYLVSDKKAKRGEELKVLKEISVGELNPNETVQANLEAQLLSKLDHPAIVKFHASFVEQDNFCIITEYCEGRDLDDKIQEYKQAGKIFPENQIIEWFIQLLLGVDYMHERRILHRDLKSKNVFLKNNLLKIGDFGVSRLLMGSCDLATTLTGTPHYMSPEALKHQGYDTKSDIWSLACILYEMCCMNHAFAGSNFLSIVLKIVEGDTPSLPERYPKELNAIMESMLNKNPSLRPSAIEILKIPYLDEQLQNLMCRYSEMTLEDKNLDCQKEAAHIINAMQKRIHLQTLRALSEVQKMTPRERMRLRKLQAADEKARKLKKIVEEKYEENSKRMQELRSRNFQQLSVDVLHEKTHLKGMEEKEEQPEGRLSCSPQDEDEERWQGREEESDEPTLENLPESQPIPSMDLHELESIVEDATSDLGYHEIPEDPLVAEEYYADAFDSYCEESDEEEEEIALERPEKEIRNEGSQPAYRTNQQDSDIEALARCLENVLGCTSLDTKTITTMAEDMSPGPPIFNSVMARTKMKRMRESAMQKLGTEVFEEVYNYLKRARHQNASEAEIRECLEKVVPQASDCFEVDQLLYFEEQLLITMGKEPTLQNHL
human kinome (Homo sapiens, UniProt Q13237), sequence (Q13237 whole entry): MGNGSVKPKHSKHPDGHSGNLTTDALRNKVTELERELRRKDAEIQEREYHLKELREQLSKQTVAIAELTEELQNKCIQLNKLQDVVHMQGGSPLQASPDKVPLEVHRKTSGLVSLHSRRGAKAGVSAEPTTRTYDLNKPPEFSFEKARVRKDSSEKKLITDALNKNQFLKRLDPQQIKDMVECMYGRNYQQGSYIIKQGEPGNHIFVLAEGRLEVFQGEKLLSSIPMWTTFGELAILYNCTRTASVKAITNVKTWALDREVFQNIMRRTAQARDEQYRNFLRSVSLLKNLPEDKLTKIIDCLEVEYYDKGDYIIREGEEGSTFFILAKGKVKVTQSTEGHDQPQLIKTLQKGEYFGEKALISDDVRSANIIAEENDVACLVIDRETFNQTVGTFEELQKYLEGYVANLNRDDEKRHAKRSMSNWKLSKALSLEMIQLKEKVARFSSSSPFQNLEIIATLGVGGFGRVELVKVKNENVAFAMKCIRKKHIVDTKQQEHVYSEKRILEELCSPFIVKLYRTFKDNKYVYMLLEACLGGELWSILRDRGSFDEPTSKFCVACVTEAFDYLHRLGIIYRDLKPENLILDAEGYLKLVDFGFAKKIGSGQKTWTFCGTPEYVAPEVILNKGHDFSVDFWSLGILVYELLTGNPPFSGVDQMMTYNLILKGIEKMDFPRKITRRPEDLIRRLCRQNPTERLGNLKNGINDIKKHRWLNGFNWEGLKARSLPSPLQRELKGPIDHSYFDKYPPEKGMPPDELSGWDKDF
human kinome (Homo sapiens, UniProt P35626), sequence (P35626 whole entry): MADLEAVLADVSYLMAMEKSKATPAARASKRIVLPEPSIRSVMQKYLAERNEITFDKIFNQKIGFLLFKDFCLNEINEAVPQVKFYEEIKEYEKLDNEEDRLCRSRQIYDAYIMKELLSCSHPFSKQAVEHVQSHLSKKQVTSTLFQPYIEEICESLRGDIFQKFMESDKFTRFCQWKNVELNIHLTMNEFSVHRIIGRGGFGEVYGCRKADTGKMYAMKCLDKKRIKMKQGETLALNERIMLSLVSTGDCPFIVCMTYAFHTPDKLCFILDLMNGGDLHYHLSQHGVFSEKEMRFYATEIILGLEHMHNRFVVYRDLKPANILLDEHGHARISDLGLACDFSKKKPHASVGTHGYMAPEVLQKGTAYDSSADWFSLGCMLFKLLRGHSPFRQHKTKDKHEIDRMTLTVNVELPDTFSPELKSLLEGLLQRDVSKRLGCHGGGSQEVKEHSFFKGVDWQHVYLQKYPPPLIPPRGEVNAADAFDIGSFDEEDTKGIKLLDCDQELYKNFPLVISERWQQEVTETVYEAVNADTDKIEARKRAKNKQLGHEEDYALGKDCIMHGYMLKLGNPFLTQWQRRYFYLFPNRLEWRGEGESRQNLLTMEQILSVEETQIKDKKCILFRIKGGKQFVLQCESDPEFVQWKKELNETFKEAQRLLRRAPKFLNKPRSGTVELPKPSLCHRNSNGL
human kinome (Homo sapiens, UniProt Q9Y2H9), sequence (Q9Y2H9 whole entry): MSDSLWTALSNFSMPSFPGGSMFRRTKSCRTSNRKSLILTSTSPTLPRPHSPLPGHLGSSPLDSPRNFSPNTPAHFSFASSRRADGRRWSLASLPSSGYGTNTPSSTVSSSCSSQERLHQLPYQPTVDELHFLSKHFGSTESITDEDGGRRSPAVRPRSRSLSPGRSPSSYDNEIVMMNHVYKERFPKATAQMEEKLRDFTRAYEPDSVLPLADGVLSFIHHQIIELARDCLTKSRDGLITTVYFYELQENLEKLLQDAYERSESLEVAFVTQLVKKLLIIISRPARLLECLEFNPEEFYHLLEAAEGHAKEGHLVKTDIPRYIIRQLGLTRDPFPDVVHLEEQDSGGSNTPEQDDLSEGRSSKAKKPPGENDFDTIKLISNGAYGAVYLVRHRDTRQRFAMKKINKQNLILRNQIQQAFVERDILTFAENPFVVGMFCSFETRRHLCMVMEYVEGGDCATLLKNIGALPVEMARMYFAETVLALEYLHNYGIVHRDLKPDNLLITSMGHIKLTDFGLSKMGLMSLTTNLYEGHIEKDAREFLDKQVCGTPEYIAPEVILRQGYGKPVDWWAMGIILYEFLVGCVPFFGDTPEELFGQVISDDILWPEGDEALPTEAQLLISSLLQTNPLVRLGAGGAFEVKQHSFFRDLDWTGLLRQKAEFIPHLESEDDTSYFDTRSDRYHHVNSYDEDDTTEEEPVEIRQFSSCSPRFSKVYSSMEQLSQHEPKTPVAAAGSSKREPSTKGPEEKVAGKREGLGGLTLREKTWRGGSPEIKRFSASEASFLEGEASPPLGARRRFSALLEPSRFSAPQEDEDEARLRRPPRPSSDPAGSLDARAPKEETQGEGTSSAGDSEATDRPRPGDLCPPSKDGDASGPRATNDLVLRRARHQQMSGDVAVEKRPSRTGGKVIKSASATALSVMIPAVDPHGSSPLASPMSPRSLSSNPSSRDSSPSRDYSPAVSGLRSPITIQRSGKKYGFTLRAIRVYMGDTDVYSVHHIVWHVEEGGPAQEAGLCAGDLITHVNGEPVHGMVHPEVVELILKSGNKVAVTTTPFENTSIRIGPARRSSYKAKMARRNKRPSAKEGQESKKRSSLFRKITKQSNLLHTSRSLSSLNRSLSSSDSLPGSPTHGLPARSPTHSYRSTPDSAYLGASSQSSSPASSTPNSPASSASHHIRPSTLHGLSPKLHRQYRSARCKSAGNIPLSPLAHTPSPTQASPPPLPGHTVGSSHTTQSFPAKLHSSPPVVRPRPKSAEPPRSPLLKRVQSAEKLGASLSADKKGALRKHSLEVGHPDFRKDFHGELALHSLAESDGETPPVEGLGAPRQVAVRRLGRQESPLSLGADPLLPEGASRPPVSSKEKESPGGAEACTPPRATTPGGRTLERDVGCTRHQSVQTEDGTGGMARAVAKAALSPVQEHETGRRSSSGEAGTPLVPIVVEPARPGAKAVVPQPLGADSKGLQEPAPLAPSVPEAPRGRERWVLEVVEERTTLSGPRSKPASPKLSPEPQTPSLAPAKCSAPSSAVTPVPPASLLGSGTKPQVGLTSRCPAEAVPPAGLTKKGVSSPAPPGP

Structure (SMILES): COc1cc(F)ccc1-c1cc(Nc2cc(CS(C)(=N)=O)ccn2)ncc1F (stereo not shown) [VIP152]
- remaining binding at 0.1 µM (human kinome [1]): 100%
- remaining binding at 0.1 µM (human kinome [2]): 100%
- remaining binding at 1 µM (human kinome [3]): 86%
- remaining binding at 0.1 µM (human kinome [4]; PRKG2, 100 nM): 100%
- remaining binding at 1 µM (human kinome [4]; kinase PRKG2 (Entrez PRKG2), compound concentration 1000 nM): 100%
- remaining binding at 1 µM (human kinome [5]): 67%
- remaining binding at 0.1 µM (human kinome [6]): 72%
- remaining binding at 0.1 µM (human kinome [7]; NEK11, 100 nM): 100%
- remaining binding at 1 µM (human kinome [7]; kinase NEK11 (Entrez NEK11), compound concentration 1000 nM): 74%
- remaining binding at 0.1 µM (human kinome [8]): 89%
- remaining binding at 0.1 µM (human kinome [9]): 80%
- remaining binding at 0.1 µM (human kinome [10]): 77%
- remaining binding at 0.1 µM (human kinome [11]): 95%
- remaining binding at 0.1 µM (human kinome [12]): 89%
- remaining binding at 0.1 µM (human kinome [13]): 100%
- remaining binding at 1 µM (human kinome [14]): 57%
- remaining binding at 1 µM (human kinome [15]): 16%
- remaining binding at 1 µM (human kinome [16]): 95%
- remaining binding at 0.1 µM (human kinome [17]; OSR1 (Entrez OXSR1), 100 nM): 100%
- remaining binding at 1 µM (human kinome [17]; kinase OSR1 (Entrez OXSR1), compound concentration 1000 nM): 100%
- remaining binding at 0.1 µM (human kinome [18]): 73%
- remaining binding at 1 µM (human kinome [19]): 93%
- remaining binding at 0.1 µM (human kinome [20]): 100%
- remaining binding at 0.1 µM (human kinome [21]; RAF1, 100 nM): 100%
- remaining binding at 1 µM (human kinome [21]; kinase RAF1 (Entrez RAF1), compound concentration 1000 nM): 96%
- remaining binding at 1 µM (human kinome [22]): 79%
- remaining binding at 1 µM (human kinome [23]): 98%
- remaining binding at 0.1 µM (human kinome [24]): 94%
- remaining binding at 1 µM (human kinome [25]): 73%
- remaining binding at 1 µM (human kinome [26]): 60%
- remaining binding at 1 µM (human kinome [27]): 82%
- remaining binding at 1 µM (human kinome [28]): 92%
- remaining binding at 0.1 µM (human kinome [29]): 100%
- remaining binding at 0.1 µM (human kinome [30]): 100%
